Measurements taken from the supplement of paper PMC10307832.

Key:
Assay in all cases: relative viability (nuclei count vs DMSO), 5 days (fraction); higher = more cells survive
[1] = compound: Cc1cnc(CNC(=O)c2c(=O)c3ccc(N4CCCN(C)CC4)nc3n3c2sc2ccccc23)cn1 [CX-5461] + O=C(c1cc(Cc2n[nH]c(=O)c3ccccc23)ccc1F)N1CCN(C(=O)C2CC2)CC1 [Olaparib] (partner 8 µM)
Outline: (§1)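 Values are medians from duplicate plates. Each reflects relative viability, defined as the nuclei count of treated wells over that of vehicle wells. Lung cancer cell lines in 1536-well plates were pin-tool dosed one day after seeding with one drug alone or with a fixed anchor-drug dose plus five library-drug doses (not always all listed) in √10 steps, then fixed, stained and imaged at 4× after 5 days.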

[2] = compound: Cc1cnc(CNC(=O)c2c(=O)c3ccc(N4CCCN(C)CC4)nc3n3c2sc2ccccc23)cn1 [CX-5461] + Nc1nc2[nH]cc(CCc3ccc(C(=O)N[C@@H](CCC(=O)O)C(=O)O)cc3)c2c(=O)[nH]1 [Pemetrexed] (partner 0.2 µM)
Outline: as §1

[3] = compound: O=C(Nc1cc(C(F)(F)F)cc(C(F)(F)F)c1)c1cc(Cl)ccc1O [IMD-0354] + O=C(CCCCCCC(=O)Nc1ccccc1)NO [Vorinostat] (partner 1 µM)
Outline: as §1

[4] = compound: O=C(Nc1cc(C(F)(F)F)cc(C(F)(F)F)c1)c1cc(Cl)ccc1O [IMD-0354] + CS(=O)(=O)N1CCN(Cc2cc3nc(-c4cccc5[nH]ncc45)nc(N4CCOCC4)c3s2)CC1 [Pictilisib] (partner 1 µM)
Outline: as §1

LOU-NH91
relative viability ([1]; first compound 0.01 µM): 0.973
relative viability ([1]; first compound 0.03162 µM): 0.992
relative viability ([1]; first compound 0.1 µM): 0.901
relative viability ([1]; first compound 0.3162 µM): 0.524
relative viability ([1]; first compound 1 µM): 0.704
relative viability ([2]; first compound 0.01 µM): 0.35
relative viability ([2]; first compound 0.03162 µM): 0.377
relative viability ([2]; first compound 0.1 µM): 0.409
relative viability ([2]; first compound 0.3162 µM): 0.354
relative viability ([2]; first compound 1 µM): 0.344
relative viability ([3]; first compound 0.04 µM): 1.03
relative viability ([3]; first compound 0.1265 µM): 0.709
relative viability ([3]; first compound 0.4 µM): 0.164
relative viability ([3]; first compound 1.265 µM): 0.173
relative viability ([3]; first compound 4 µM): 0.201
relative viability ([4]; first compound 0.04 µM): 0.556
relative viability ([4]; first compound 0.1265 µM): 0.591
relative viability ([4]; first compound 0.4 µM): 0.259
relative viability ([4]; first compound 1.265 µM): 0.203
relative viability ([4]; first compound 4 µM): 0.209

LU99A
relative viability ([1]; first compound 0.01 µM): 0.27
relative viability ([1]; first compound 0.03162 µM): 0.241
relative viability ([1]; first compound 0.1 µM): 0.297
relative viability ([1]; first compound 0.3162 µM): 0.221
relative viability ([1]; first compound 1 µM): 0.284
relative viability ([2]; first compound 0.01 µM): 0.197
relative viability ([2]; first compound 0.03162 µM): 0.175
relative viability ([2]; first compound 0.1 µM): 0.159
relative viability ([2]; first compound 0.3162 µM): 0.188
relative viability ([2]; first compound 1 µM): 0.179
relative viability ([3]; first compound 0.04 µM): 0.417
relative viability ([3]; first compound 0.1265 µM): 0.498
relative viability ([3]; first compound 0.4 µM): 0.375
relative viability ([3]; first compound 1.265 µM): 0.2
relative viability ([3]; first compound 4 µM): 0.162
relative viability ([4]; first compound 0.04 µM): 0.287
relative viability ([4]; first compound 0.1265 µM): 0.304
relative viability ([4]; first compound 0.4 µM): 0.357
relative viability ([4]; first compound 1.265 µM): 0.152
relative viability ([4]; first compound 4 µM): 0.156

NCI-H522
relative viability ([1]; first compound 0.01 µM): 0.647
relative viability ([1]; first compound 0.03162 µM): 0.645
relative viability ([1]; first compound 0.1 µM): 0.664
relative viability ([1]; first compound 1 µM): 0.664
relative viability ([2]; first compound 0.01 µM): 1.15
relative viability ([2]; first compound 0.03162 µM): 1.1
relative viability ([2]; first compound 0.1 µM): 0.832
relative viability ([2]; first compound 1 µM): 0.918
relative viability ([3]; first compound 0.04 µM): 1.02
relative viability ([3]; first compound 0.1265 µM): 0.865
relative viability ([3]; first compound 0.4 µM): 0.637
relative viability ([3]; first compound 1.265 µM): 0.757
relative viability ([3]; first compound 4 µM): 0.449

NCI-H727
relative viability ([1]; first compound 0.01 µM): 0.713
relative viability ([1]; first compound 0.03162 µM): 0.704
relative viability ([1]; first compound 0.1 µM): 0.762
relative viability ([1]; first compound 0.3162 µM): 0.837
relative viability ([1]; first compound 1 µM): 0.763
relative viability ([3]; first compound 0.04 µM): 1.04
relative viability ([3]; first compound 0.1265 µM): 1.19
relative viability ([3]; first compound 0.4 µM): 0.856
relative viability ([3]; first compound 1.265 µM): 0.808
relative viability ([3]; first compound 4 µM): 0.787
relative viability ([4]; first compound 0.04 µM): 0.384
relative viability ([4]; first compound 0.1265 µM): 0.368
relative viability ([4]; first compound 0.4 µM): 0.35
relative viability ([4]; first compound 1.265 µM): 0.237
relative viability ([4]; first compound 4 µM): 0.238

NCI-H1299
relative viability ([1]; first compound 0.01 µM): 0.979
relative viability ([1]; first compound 0.03162 µM): 0.982
relative viability ([1]; first compound 0.1 µM): 0.973
relative viability ([1]; first compound 0.3162 µM): 1
relative viability ([1]; first compound 1 µM): 0.891
relative viability ([4]; first compound 0.04 µM): 0.753
relative viability ([4]; first compound 0.1265 µM): 0.717
relative viability ([4]; first compound 0.4 µM): 0.369
relative viability ([4]; first compound 1.265 µM): 0.0957
relative viability ([4]; first compound 4 µM): 0.0657

NCI-H1563
relative viability ([2]; first compound 0.01 µM): 0.81
relative viability ([2]; first compound 0.03162 µM): 0.747
relative viability ([2]; first compound 0.1 µM): 0.908
relative viability ([2]; first compound 0.3162 µM): 0.687
relative viability ([2]; first compound 1 µM): 0.651
relative viability ([4]; first compound 0.04 µM): 0.635
relative viability ([4]; first compound 0.1265 µM): 0.704
relative viability ([4]; first compound 0.4 µM): 0.595
relative viability ([4]; first compound 1.265 µM): 0.387
relative viability ([4]; first compound 4 µM): 0.318

NCI-H1648
relative viability ([1]; first compound 0.01 µM): 1.19
relative viability ([1]; first compound 0.03162 µM): 0.765
relative viability ([1]; first compound 0.1 µM): 0.76
relative viability ([1]; first compound 0.3162 µM): 0.762
relative viability ([1]; first compound 1 µM): 1.05
relative viability ([2]; first compound 0.01 µM): 0.631
relative viability ([2]; first compound 0.03162 µM): 0.847
relative viability ([2]; first compound 0.1 µM): 0.686
relative viability ([2]; first compound 0.3162 µM): 0.832
relative viability ([2]; first compound 1 µM): 0.494
relative viability ([3]; first compound 0.04 µM): 0.303
relative viability ([3]; first compound 0.1265 µM): 0.694
relative viability ([3]; first compound 0.4 µM): 0.289
relative viability ([3]; first compound 1.265 µM): 0.617
relative viability ([3]; first compound 4 µM): 0.3

NCI-H1703
relative viability ([1]; first compound 0.01 µM): 0.535
relative viability ([1]; first compound 0.03162 µM): 0.531
relative viability ([1]; first compound 0.1 µM): 0.334
relative viability ([1]; first compound 0.3162 µM): 0.538
relative viability ([1]; first compound 1 µM): 0.422
relative viability ([4]; first compound 0.04 µM): 0.273
relative viability ([4]; first compound 0.1265 µM): 0.241
relative viability ([4]; first compound 0.4 µM): 0.235
relative viability ([4]; first compound 1.265 µM): 0.157
relative viability ([4]; first compound 4 µM): 0.123

NCI-H1792
relative viability ([1]; first compound 0.01 µM): 0.424
relative viability ([1]; first compound 0.03162 µM): 0.471
relative viability ([1]; first compound 0.1 µM): 0.477
relative viability ([1]; first compound 0.3162 µM): 0.371
relative viability ([1]; first compound 1 µM): 0.39
relative viability ([2]; first compound 0.01 µM): 0.897
relative viability ([2]; first compound 0.03162 µM): 0.929
relative viability ([2]; first compound 0.1 µM): 0.964
relative viability ([2]; first compound 0.3162 µM): 1.02
relative viability ([2]; first compound 1 µM): 0.296
relative viability ([4]; first compound 0.04 µM): 0.298
relative viability ([4]; first compound 0.1265 µM): 0.225
relative viability ([4]; first compound 0.4 µM): 0.622
relative viability ([4]; first compound 1.265 µM): 0.203
relative viability ([4]; first compound 4 µM): 0.204

NCI-H2342
relative viability ([1]; first compound 0.01 µM): 0.488
relative viability ([1]; first compound 0.03162 µM): 0.398
relative viability ([1]; first compound 0.1 µM): 0.44
relative viability ([1]; first compound 0.3162 µM): 0.391
relative viability ([1]; first compound 1 µM): 0.447
relative viability ([2]; first compound 0.01 µM): 0.764
relative viability ([2]; first compound 0.03162 µM): 0.815
relative viability ([2]; first compound 0.1 µM): 0.751
relative viability ([2]; first compound 0.3162 µM): 0.744
relative viability ([2]; first compound 1 µM): 0.745
relative viability ([3]; first compound 0.04 µM): 0.769
relative viability ([3]; first compound 0.1265 µM): 0.853
relative viability ([3]; first compound 0.4 µM): 0.53
relative viability ([3]; first compound 1.265 µM): 0.697
relative viability ([3]; first compound 4 µM): 0.364

SW 900
relative viability ([1]; first compound 0.01 µM): 0.785
relative viability ([1]; first compound 0.03162 µM): 0.872
relative viability ([1]; first compound 0.3162 µM): 0.923
relative viability ([1]; first compound 1 µM): 1
relative viability ([2]; first compound 0.01 µM): 0.437
relative viability ([2]; first compound 0.03162 µM): 0.52
relative viability ([2]; first compound 0.3162 µM): 0.521
relative viability ([2]; first compound 1 µM): 0.441
relative viability ([3]; first compound 0.04 µM): 0.496
relative viability ([3]; first compound 0.1265 µM): 0.554
relative viability ([3]; first compound 0.4 µM): 0.243
relative viability ([3]; first compound 1.265 µM): 0.227
relative viability ([3]; first compound 4 µM): 0.265
